This note sets out measurements from patent publication US20250353851A1, “PURINES AND METHODS OF THEIR USE” (Kineta, Inc., priority 2021, published 2025).

SMILES strings stand for the structures.

This assay has as its target T1, full-length human PIKFYVE (N-terminal GST-fusion) (Homo sapiens, UniProt Q9Y2I7, L932S/Q1183K/Q995L/S1033A/S696N/T998S).
T1 construct: A full-length human PIKFYVE [1-2098(end) amino acids; purchased Carna Biosciences; host or cells: baculovirus expression system
Briefly: PIKfyve Biochemical Assay (ADP-Glo Kinase assay, Carna Biosciences). As for the experimental part:
PIKfyve Biochemical Assay. The biochemical PIKFyve inhibition assays were run by Carna Biosciences according to proprietary methodology based on the Promega ADP-Glo™ Kinase assay. […] GST-PIKFYVE was purified by using glutathione sepharose chromatography and used in an ADP-Glo™ Kinase assay (Promega). Reactions were set up by adding the test compound solution, substrate solution, ATP solution and kinase solution, each at 4× final concentrations. Reactions were prepared with assay buffer (50 mM MOPS, 1 mM DTT, pH7.2), mixed, and incubated in black 384 well polystyrene plates for 1 hour at room temperature. ADP-Glo™ reagent was then added for 40 minutes, followed by kinase detection reagent for an additional 40 minutes. The kinase activity was evaluated by detecting relative light units on a luminescence plate reader. Samples were run in duplicate from 10 μM to 3 nM. […] IC50 values were calculated from concentration vs % inhibition curves by fitting to a four-parameter logistic curve.
The biochemical PIKFyve inhibition assays were run by Carna Biosciences according to proprietary methodology based on the Promega ADP-Glo™ Kinase assay. […] The kinase activity was evaluated by detecting relative light units on a luminescence plate reader. […] IC50 values were calculated from concentration vs % inhibition curves by fitting to a four-parameter logistic curve. […]

T1 sequence (Q9Y2I7 whole entry S696N/L932S/Q995L/T998S/S1033A/Q1183K, the tested form may be a part): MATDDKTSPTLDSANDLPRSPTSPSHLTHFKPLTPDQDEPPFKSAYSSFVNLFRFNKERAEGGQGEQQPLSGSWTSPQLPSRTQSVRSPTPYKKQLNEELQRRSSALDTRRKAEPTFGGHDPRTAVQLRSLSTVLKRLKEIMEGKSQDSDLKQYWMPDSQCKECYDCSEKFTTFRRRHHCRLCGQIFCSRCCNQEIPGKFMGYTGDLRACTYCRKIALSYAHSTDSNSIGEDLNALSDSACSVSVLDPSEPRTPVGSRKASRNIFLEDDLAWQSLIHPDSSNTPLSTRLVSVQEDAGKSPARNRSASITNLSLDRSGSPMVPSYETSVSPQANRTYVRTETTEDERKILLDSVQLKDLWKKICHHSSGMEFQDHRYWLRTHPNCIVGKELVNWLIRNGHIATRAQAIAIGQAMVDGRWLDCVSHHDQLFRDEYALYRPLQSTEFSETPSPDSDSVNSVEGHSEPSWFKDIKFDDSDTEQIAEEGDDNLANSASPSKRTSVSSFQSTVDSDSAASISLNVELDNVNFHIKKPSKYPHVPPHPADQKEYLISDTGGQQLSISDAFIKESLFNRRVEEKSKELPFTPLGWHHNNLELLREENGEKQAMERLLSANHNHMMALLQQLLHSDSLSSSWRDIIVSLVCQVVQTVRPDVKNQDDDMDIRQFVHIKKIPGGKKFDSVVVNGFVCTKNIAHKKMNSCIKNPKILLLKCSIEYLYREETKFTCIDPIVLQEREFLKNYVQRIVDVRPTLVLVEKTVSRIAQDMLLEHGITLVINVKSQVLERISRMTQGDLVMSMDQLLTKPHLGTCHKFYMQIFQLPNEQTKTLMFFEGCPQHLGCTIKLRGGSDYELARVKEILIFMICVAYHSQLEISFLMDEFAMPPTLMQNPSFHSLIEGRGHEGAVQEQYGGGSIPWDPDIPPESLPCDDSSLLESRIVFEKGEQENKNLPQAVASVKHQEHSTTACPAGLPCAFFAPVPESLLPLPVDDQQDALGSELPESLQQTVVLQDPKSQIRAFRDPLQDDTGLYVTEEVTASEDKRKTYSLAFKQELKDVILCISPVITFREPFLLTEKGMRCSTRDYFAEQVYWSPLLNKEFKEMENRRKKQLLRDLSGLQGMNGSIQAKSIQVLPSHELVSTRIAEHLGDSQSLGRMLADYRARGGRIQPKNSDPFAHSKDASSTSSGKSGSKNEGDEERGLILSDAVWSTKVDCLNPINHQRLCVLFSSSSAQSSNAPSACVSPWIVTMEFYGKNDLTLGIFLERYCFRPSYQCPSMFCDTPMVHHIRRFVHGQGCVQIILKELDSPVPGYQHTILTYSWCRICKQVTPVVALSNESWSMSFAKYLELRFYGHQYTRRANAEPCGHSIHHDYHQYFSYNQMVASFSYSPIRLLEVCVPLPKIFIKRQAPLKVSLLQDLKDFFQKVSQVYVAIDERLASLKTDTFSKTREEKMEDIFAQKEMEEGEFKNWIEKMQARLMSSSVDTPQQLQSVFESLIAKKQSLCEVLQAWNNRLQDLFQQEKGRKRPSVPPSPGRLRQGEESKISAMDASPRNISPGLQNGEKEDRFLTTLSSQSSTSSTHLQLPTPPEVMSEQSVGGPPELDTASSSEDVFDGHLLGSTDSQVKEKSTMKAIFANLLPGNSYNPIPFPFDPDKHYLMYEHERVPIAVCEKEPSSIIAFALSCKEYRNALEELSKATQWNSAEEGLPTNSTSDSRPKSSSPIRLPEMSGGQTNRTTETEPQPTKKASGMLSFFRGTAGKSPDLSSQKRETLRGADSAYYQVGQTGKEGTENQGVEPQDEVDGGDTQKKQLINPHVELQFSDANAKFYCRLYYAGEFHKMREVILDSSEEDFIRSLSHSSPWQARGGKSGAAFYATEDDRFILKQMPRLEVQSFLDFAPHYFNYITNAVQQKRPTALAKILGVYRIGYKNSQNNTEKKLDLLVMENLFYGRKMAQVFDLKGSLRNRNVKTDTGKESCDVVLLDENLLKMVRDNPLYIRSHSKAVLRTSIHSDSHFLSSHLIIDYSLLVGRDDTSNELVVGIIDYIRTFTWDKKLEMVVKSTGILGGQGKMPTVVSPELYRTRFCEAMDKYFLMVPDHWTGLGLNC

The term IC50 denotes the concentration that gives 50% inhibition. The low end stands for inhibition by little substance, the high end for a need for much substance. In turn, `CCn1c(C(C)O)nc2c(N3CCCCC3)nc(-c3cccc(-c4ccn(C)n4)c3)nc21` (stereo not shown) [Compound 339, 1-(9-ethyl-2-(3-(1-methyl-1H-pyrazol-3-yl)phenyl)-6-(piperidin-1-yl)-9H-purin-8-yl)ethan-1-ol] displayed a half-maximal inhibitory concentration (IC50) of 4.41 µM.
